# Results reported in the OligoGym collection.
# Oligonucleotides are given in HELM: sugar(base)linkage, 5' to 3'; d 2'-deoxyribose, r ribose, m 2'-O-methylribose, p phosphate. ss, as = sense and antisense strand
# Biological target: UBE2D3
# Assay: reporter assay of Huesken 2005
# Settings: siRNA
# Also: test concentration or dose not given here.
row,Substance,normalised inhibition (eCFP-eYFP dual reporter) [%]
1,RNA1{r(U)p.r(C)p.r(A)p.r(C)p.r(U)p.r(G)p.r(C)p.r(U)p.r(A)p.r(U)p.r(G)p.r(U)p.r(G)p.r(A)p.r(U)p.r(C)p.r(C)p.r(A)p.r(A)p.d(T)p.d(T)}|RNA2{r(U)p.r(U)p.r(G)p.r(G)p.r(A)p.r(U)p.r(C)p.r(A)p.r(C)p.r(A)p.r(U)p.r(A)p.r(G)p.r(C)p.r(A)p.r(G)p.r(U)p.r(G)p.r(A)p.d(A)p.d(C)}$$$RNA1{StrandType:ss}|RNA2{StrandType:as}$,95.2
2,RNA1{r(U)p.r(C)p.r(C)p.r(A)p.r(U)p.r(U)p.r(U)p.r(G)p.r(U)p.r(U)p.r(C)p.r(A)p.r(C)p.r(U)p.r(G)p.r(C)p.r(U)p.r(A)p.r(U)p.d(T)p.d(T)}|RNA2{r(A)p.r(U)p.r(A)p.r(G)p.r(C)p.r(A)p.r(G)p.r(U)p.r(G)p.r(A)p.r(A)p.r(C)p.r(A)p.r(A)p.r(A)p.r(U)p.r(G)p.r(G)p.r(A)p.d(T)p.d(A)}$$$RNA1{StrandType:ss}|RNA2{StrandType:as}$,98.4
3,RNA1{r(U)p.r(C)p.r(U)p.r(A)p.r(A)p.r(A)p.r(G)p.r(U)p.r(U)p.r(C)p.r(U)p.r(U)p.r(U)p.r(U)p.r(A)p.r(U)p.r(C)p.r(C)p.r(A)p.d(T)p.d(T)}|RNA2{r(U)p.r(G)p.r(G)p.r(A)p.r(U)p.r(A)p.r(A)p.r(A)p.r(A)p.r(G)p.r(A)p.r(A)p.r(C)p.r(U)p.r(U)p.r(U)p.r(A)p.r(G)p.r(A)p.d(A)p.d(A)}$$$RNA1{StrandType:ss}|RNA2{StrandType:as}$,64.2
4,RNA1{r(U)p.r(C)p.r(U)p.r(A)p.r(A)p.r(G)p.r(A)p.r(U)p.r(C)p.r(A)p.r(C)p.r(A)p.r(G)p.r(U)p.r(G)p.r(G)p.r(U)p.r(C)p.r(G)p.d(T)p.d(T)}|RNA2{r(C)p.r(G)p.r(A)p.r(C)p.r(C)p.r(A)p.r(C)p.r(U)p.r(G)p.r(U)p.r(G)p.r(A)p.r(U)p.r(C)p.r(U)p.r(U)p.r(A)p.r(G)p.r(A)p.d(A)p.d(T)}$$$RNA1{StrandType:ss}|RNA2{StrandType:as}$,43.3
5,RNA1{r(U)p.r(C)p.r(U)p.r(C)p.r(G)p.r(A)p.r(U)p.r(A)p.r(U)p.r(U)p.r(C)p.r(U)p.r(A)p.r(A)p.r(G)p.r(A)p.r(U)p.r(C)p.r(A)p.d(T)p.d(T)}|RNA2{r(U)p.r(G)p.r(A)p.r(U)p.r(C)p.r(U)p.r(U)p.r(A)p.r(G)p.r(A)p.r(A)p.r(U)p.r(A)p.r(U)p.r(C)p.r(G)p.r(A)p.r(G)p.r(A)p.d(C)p.d(A)}$$$RNA1{StrandType:ss}|RNA2{StrandType:as}$,98.1
6,RNA1{r(U)p.r(C)p.r(U)p.r(G)p.r(C)p.r(A)p.r(G)p.r(G)p.r(U)p.r(C)p.r(C)p.r(A)p.r(G)p.r(U)p.r(U)p.r(G)p.r(G)p.r(G)p.r(G)p.d(T)p.d(T)}|RNA2{r(C)p.r(C)p.r(C)p.r(C)p.r(A)p.r(A)p.r(C)p.r(U)p.r(G)p.r(G)p.r(A)p.r(C)p.r(C)p.r(U)p.r(G)p.r(C)p.r(A)p.r(G)p.r(A)p.d(A)p.d(C)}$$$RNA1{StrandType:ss}|RNA2{StrandType:as}$,32.9
7,RNA1{r(U)p.r(G)p.r(A)p.r(C)p.r(A)p.r(A)p.r(U)p.r(U)p.r(C)p.r(A)p.r(U)p.r(U)p.r(U)p.r(U)p.r(C)p.r(C)p.r(U)p.r(A)p.r(C)p.d(T)p.d(T)}|RNA2{r(G)p.r(U)p.r(A)p.r(G)p.r(G)p.r(A)p.r(A)p.r(A)p.r(A)p.r(U)p.r(G)p.r(A)p.r(A)p.r(U)p.r(U)p.r(G)p.r(U)p.r(C)p.r(A)p.d(A)p.d(A)}$$$RNA1{StrandType:ss}|RNA2{StrandType:as}$,55.4
8,RNA1{r(U)p.r(G)p.r(C)p.r(A)p.r(U)p.r(U)p.r(U)p.r(A)p.r(C)p.r(A)p.r(A)p.r(C)p.r(A)p.r(A)p.r(G)p.r(A)p.r(A)p.r(U)p.r(U)p.d(T)p.d(T)}|RNA2{r(A)p.r(A)p.r(U)p.r(U)p.r(C)p.r(U)p.r(U)p.r(G)p.r(U)p.r(U)p.r(G)p.r(U)p.r(A)p.r(A)p.r(A)p.r(U)p.r(G)p.r(C)p.r(A)p.d(A)p.d(C)}$$$RNA1{StrandType:ss}|RNA2{StrandType:as}$,83.3
9,RNA1{r(U)p.r(G)p.r(C)p.r(U)p.r(A)p.r(U)p.r(G)p.r(U)p.r(G)p.r(A)p.r(U)p.r(C)p.r(C)p.r(A)p.r(A)p.r(A)p.r(C)p.r(C)p.r(C)p.d(T)p.d(T)}|RNA2{r(G)p.r(G)p.r(G)p.r(U)p.r(U)p.r(U)p.r(G)p.r(G)p.r(A)p.r(U)p.r(C)p.r(A)p.r(C)p.r(A)p.r(U)p.r(A)p.r(G)p.r(C)p.r(A)p.d(G)p.d(T)}$$$RNA1{StrandType:ss}|RNA2{StrandType:as}$,42.2
10,RNA1{r(U)p.r(G)p.r(C)p.r(U)p.r(U)p.r(U)p.r(A)p.r(A)p.r(C)p.r(A)p.r(A)p.r(U)p.r(U)p.r(U)p.r(C)p.r(U)p.r(A)p.r(A)p.r(A)p.d(T)p.d(T)}|RNA2{r(U)p.r(U)p.r(U)p.r(A)p.r(G)p.r(A)p.r(A)p.r(A)p.r(U)p.r(U)p.r(G)p.r(U)p.r(U)p.r(A)p.r(A)p.r(A)p.r(G)p.r(C)p.r(A)p.d(G)p.d(G)}$$$RNA1{StrandType:ss}|RNA2{StrandType:as}$,92
11,RNA1{r(U)p.r(G)p.r(G)p.r(C)p.r(A)p.r(G)p.r(C)p.r(A)p.r(U)p.r(U)p.r(U)p.r(G)p.r(U)p.r(C)p.r(U)p.r(C)p.r(G)p.r(A)p.r(U)p.d(T)p.d(T)}|RNA2{r(A)p.r(U)p.r(C)p.r(G)p.r(A)p.r(G)p.r(A)p.r(C)p.r(A)p.r(A)p.r(A)p.r(U)p.r(G)p.r(C)p.r(U)p.r(G)p.r(C)p.r(C)p.r(A)p.d(T)p.d(T)}$$$RNA1{StrandType:ss}|RNA2{StrandType:as}$,99.6
12,RNA1{r(U)p.r(G)p.r(G)p.r(G)p.r(A)p.r(C)p.r(C)p.r(U)p.r(A)p.r(A)p.r(U)p.r(G)p.r(A)p.r(C)p.r(A)p.r(G)p.r(C)p.r(C)p.r(C)p.d(T)p.d(T)}|RNA2{r(G)p.r(G)p.r(G)p.r(C)p.r(U)p.r(G)p.r(U)p.r(C)p.r(A)p.r(U)p.r(U)p.r(A)p.r(G)p.r(G)p.r(U)p.r(C)p.r(C)p.r(C)p.r(A)p.d(T)p.d(A)}$$$RNA1{StrandType:ss}|RNA2{StrandType:as}$,48.6
13,RNA1{r(U)p.r(G)p.r(G)p.r(U)p.r(C)p.r(G)p.r(C)p.r(C)p.r(U)p.r(G)p.r(C)p.r(U)p.r(U)p.r(U)p.r(A)p.r(A)p.r(C)p.r(A)p.r(A)p.d(T)p.d(T)}|RNA2{r(U)p.r(U)p.r(G)p.r(U)p.r(U)p.r(A)p.r(A)p.r(A)p.r(G)p.r(C)p.r(A)p.r(G)p.r(G)p.r(C)p.r(G)p.r(A)p.r(C)p.r(C)p.r(A)p.d(C)p.d(T)}$$$RNA1{StrandType:ss}|RNA2{StrandType:as}$,90.3
14,RNA1{r(U)p.r(U)p.r(A)p.r(U)p.r(C)p.r(C)p.r(A)p.r(U)p.r(U)p.r(U)p.r(G)p.r(U)p.r(U)p.r(C)p.r(A)p.r(C)p.r(U)p.r(G)p.r(C)p.d(T)p.d(T)}|RNA2{r(G)p.r(C)p.r(A)p.r(G)p.r(U)p.r(G)p.r(A)p.r(A)p.r(C)p.r(A)p.r(A)p.r(A)p.r(U)p.r(G)p.r(G)p.r(A)p.r(U)p.r(A)p.r(A)p.d(A)p.d(A)}$$$RNA1{StrandType:ss}|RNA2{StrandType:as}$,23.6
